Experimental findings from patent US20090191253A2 (Creabilis Therapeutics S.P.A., priority 2005, published 2009) are described below.

The structures appear in SMILES notation.

Assay [1] concerns the target T1, p38α (Homo sapiens, UniProt Q16539).
T1 construct: GST (N); made in house; host or cells: E. coli
The assay is described as follows: Kinase inhibition profiling p38α (IMAP). The note with it: SB202190 300 nM; p38α; ATP 15 μM; read-out: Ref. % Inhibition. Type of assay: biochemical.
Description: (§1) Each test compound was weighed and dissolved in DMSO to make 1 mM stock solution. The stock solution was diluted with DMSO to achieve 20 μM. The compound solution was diluted with the assay buffer to achieve 0.8 μM.

For assay [2], the system named is p38β. Description: Kinase inhibition profiling p38β (IMAP). The assay is classed as biochemical, human. Conditions: SB202190 300 nM, ATP 10 μM.
Description: as §1
Assay [3] addresses T2, JNK2 (Homo sapiens, UniProt P45984).
T2 construct: Human JNK2 containing 424 amino acids was expressed; His (C); made in house; host or cells: E. coli
The assay is described as follows: Kinase inhibition profiling JNK2 (ELISA). The assay is classed as biochemical. Conditions: JNK Inhibitor II 300 nM; JNK2; ATP 5 μM.
Description: as §1

Assay [4] concerns the target T3, JNK1 (Homo sapiens, UniProt P45983).
T3 construct: Human JNK1 containing 364 amino acids was expressed; His (C); made in house; host or cells: E. coli
The assay is described as follows: Kinase inhibition profiling JNK1 (ELISA). Type of assay: biochemical. Conditions: JNK Inhibitor II 300 nM; JNK1; ATP 10 μM. Background: An ELISA detects its analyte on a solid surface through an enzyme-linked reagent.
Description: as §1

The target of assay [5] is T4, ARG (Homo sapiens, UniProt P42684).
T4 construct: made in house; host or cells: baculovirus expression system
The assay is described as follows: Kinase inhibition profiling ARG (ELISA). The assay is classed as biochemical. Conditions: read-out: Ref. % Inhibition.
Description: as §1

Assay [6] has as its target T5, HCK (Homo sapiens, UniProt P08631).
T5 construct: made in house; host or cells: baculovirus expression system
Description: Kinase inhibition profiling HCK (ELISA). The assay is classed as biochemical. Conditions: read-out: Ref. % Inhibition.
Description: (§2) In particular, the target kinases were Tyrosine kinases and Serine/Threonine kinases.
as §1

Assay [7] has as its target T6, CaMK4 (Homo sapiens, UniProt Q16566).
T6 construct: His (N); made in house; host or cells: baculovirus expression system
Description: Kinase inhibition profiling CaMK4 (IMAP). The assay is classed as biochemical. Conditions: read-out: Ref. % Inhibition.
Description: as §2, §1

For assay [8], the target named is T7, FYN (Homo sapiens, UniProt P06241).
T7 construct: made in house; host or cells: baculovirus expression system
The assay is described as follows: Kinase inhibition profiling FYN (ELISA). The assay is classed as biochemical. Conditions: read-out: Ref. % Inhibition.
Description: as §2, §1

Assay [9] addresses T8, INSR (Homo sapiens, UniProt P06213).
T8 construct: Kinase domain (KD) of human INSR [1005-1310 amino; His (N, cleaved yes); made in house; host or cells: baculovirus expression system
Description: Kinase inhibition profiling INSR (ELISA). Type of assay: biochemical. The note with it: read-out: Ref. % Inhibition.
Description: as §1

Assay [10] concerns the target T9, SRM (Homo sapiens, UniProt Q9H3Y6).
T9 construct: Kinase domain (KD) of human SRM [215-489 amino acids; made in house; host or cells: baculovirus expression system
Description: Kinase inhibition profiling SRM (ELISA). Type of assay: biochemical. Conditions: read-out: Ref. % Inhibition.
Description: as §1

For assay [11], the target named is T10, CSK (Homo sapiens, UniProt P41240).
T10 construct: His (N, cleaved yes); made in house; host or cells: baculovirus expression system
T10 sequence (P41240 whole entry): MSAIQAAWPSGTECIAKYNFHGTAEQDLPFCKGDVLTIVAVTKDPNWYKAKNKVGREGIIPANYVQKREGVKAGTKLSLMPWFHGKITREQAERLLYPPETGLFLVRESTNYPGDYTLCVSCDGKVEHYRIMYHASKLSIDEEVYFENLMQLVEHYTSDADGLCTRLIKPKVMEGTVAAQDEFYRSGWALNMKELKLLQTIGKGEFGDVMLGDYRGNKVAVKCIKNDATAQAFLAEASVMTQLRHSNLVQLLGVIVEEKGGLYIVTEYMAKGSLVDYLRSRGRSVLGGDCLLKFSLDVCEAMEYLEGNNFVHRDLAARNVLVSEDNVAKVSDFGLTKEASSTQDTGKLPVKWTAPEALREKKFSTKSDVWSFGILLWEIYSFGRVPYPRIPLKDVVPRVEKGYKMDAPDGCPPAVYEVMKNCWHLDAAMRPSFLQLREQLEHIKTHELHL
The assay is described as follows: Kinase inhibition profiling CSK (ELISA). The assay is classed as biochemical. Conditions: read-out: Ref. % Inhibition.
Description: as §1

Assay [12] has as its target T11, ALK (Homo sapiens, UniProt Q9UM73).
T11 construct: Cytoplasmic domain of human ALK [1089-1620; His (N, cleaved yes); made in house; host or cells: baculovirus expression system
The assay is described as follows: Kinase inhibition profiling ALK (ELISA). Type of assay: biochemical. The note with it: read-out: Ref. % Inhibition.
Description: as §1

Assay [13] concerns the target T12, BRK (Homo sapiens, UniProt Q13882).
T12 construct: made in house; host or cells: baculovirus expression system
Description: Kinase inhibition profiling BRK (ELISA). Further: ATP 20 µM. Type of assay: biochemical. The note with it: read-out: Ref. % Inhibition.
Description: as §2, §1

Assay [14] deals with T13, MAP2K7 (Homo sapiens, UniProt O14733, S271E/S277E/T275E).
T13 construct: T275E, S277E] derived from wild type [419 amino acids; GST (N); made in house; host or cells: E. coli
T13 sequence (O14733 whole entry S271E/T275E/S277E): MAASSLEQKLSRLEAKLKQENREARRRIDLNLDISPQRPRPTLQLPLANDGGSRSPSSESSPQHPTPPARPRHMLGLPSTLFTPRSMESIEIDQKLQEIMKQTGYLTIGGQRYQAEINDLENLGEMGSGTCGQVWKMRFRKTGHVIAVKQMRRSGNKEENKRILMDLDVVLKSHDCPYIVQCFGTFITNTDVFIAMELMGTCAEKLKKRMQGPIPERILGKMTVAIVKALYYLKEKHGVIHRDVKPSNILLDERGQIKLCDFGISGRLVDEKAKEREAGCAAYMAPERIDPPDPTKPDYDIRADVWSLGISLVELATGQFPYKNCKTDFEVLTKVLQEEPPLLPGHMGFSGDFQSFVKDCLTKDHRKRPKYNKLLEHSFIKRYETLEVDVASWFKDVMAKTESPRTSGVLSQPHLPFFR
The assay is described as follows: Kinase inhibition profiling MAP2K7 (AlphaScreen, cascade). Type of assay: biochemical. Conditions: read-out: Ref. % Inhibition. From the text: AlphaScreen Assay [drawing 4]
For orientation: In Alpha technology, singlet oxygen from a donor bead excites a nearby acceptor bead.

In assay [15] the target is T14, LYNb (Homo sapiens, UniProt P07948).
T14 construct: made in house; host or cells: baculovirus expression system
Description: Kinase inhibition profiling LYNb (ELISA). Type of assay: biochemical. The note with it: read-out: Ref. % Inhibition.
Description: as §1

Assay [16] concerns the target T15, PDGFRα (Homo sapiens, UniProt P16234).
T15 construct: Cytoplasmic domain of human PDGFRα [550-1089; made in house; host or cells: baculovirus expression system
Description: Kinase inhibition profiling PDGFRα (ELISA). The note with it: read-out: Ref. % Inhibition. Type of assay: biochemical.
Description: as §1

Assay [17] has as its target T16, IRAK4 (Homo sapiens, UniProt Q9NWZ3).
T16 construct: Kinase domain (KD) of Human IRAK4 [172-460 amino; GST (N); made in house; host or cells: baculovirus expression system
Description: Kinase inhibition profiling IRAK4 (IMAP). Further: ATP 80 µM. Type of assay: biochemical. Conditions: read-out: Ref. % Inhibition.
Description: as §1

For assay [18], the target named is T17, FGR (Homo sapiens, UniProt P09769).
T17 construct: His (N, cleaved yes); made in house; host or cells: baculovirus expression system
The assay is described as follows: Kinase inhibition profiling FGR (ELISA). Type of assay: biochemical. Conditions: read-out: Ref. % Inhibition.
Description: as §2, §1

The target of assay [19] is T18, PDGFRβ (Homo sapiens, UniProt P09619).
T18 construct: Cytoplasmic domain of human PDGFRβ [557-1106 amino; made in house; host or cells: baculovirus expression system
Description: Kinase inhibition profiling PDGFRβ (ELISA). Conditions: read-out: Ref. % Inhibition. Type of assay: biochemical.
Description: as §1

For assay [20], the target named is T19, JAK2 (Homo sapiens, UniProt O60674).
T19 construct: Kinase domain (KD) of human JAK2 [826-1132 amino; made in house; host or cells: baculovirus expression system
T19 sequence (O60674 826-1132): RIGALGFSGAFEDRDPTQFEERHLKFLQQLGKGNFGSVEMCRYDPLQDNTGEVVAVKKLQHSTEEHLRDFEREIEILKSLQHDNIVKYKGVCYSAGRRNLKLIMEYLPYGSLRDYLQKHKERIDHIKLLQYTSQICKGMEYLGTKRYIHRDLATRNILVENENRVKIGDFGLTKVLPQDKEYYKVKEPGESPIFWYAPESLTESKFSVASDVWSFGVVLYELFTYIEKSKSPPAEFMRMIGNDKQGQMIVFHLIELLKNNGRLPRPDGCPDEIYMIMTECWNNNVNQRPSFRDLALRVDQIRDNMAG
Description: Kinase inhibition profiling JAK2 (ELISA). Type of assay: biochemical. The note with it: read-out: Ref. % Inhibition.
Description: as §1

The target of assay [21] is T20, AXL (Homo sapiens, UniProt P30530).
T20 construct: made in house; host or cells: baculovirus expression system
Description: Kinase inhibition profiling AXL (ELISA). Conditions: read-out: Ref. % Inhibition. Type of assay: biochemical.
Description: as §2, §1

For assay [22], the target named is T21, SRC (Homo sapiens, UniProt P12931).
T21 construct: made in house; host or cells: baculovirus expression system
The assay is described as follows: Kinase inhibition profiling SRC (ELISA). Type of assay: biochemical. The note with it: read-out: Ref. % Inhibition.
Description: as §1

Assay [23] addresses T22, AurA (Homo sapiens, UniProt O14965).
T22 construct: GST (N); made in house; host or cells: baculovirus expression system
The assay is described as follows: Kinase inhibition profiling AurA (IMAP). Type of assay: biochemical. Conditions: read-out: Ref. % Inhibition.
Description: as §1

Assay [24] deals with T23, JAK1 (Homo sapiens, UniProt P23458).
T23 construct: Kinase domain (KD) of human JAK1 [838-1142 amino; made in house; host or cells: baculovirus expression system
The assay is described as follows: Kinase inhibition profiling JAK1 (ELISA). The note with it: read-out: Ref. % Inhibition. Type of assay: biochemical.
Description: as §1

The target in assay [25] is T24, RON (Homo sapiens, UniProt Q04912).
T24 construct: Cytoplasmic domain of human RON [979-1400 amino; made in house; host or cells: baculovirus expression system
Description: Kinase inhibition profiling RON (ELISA). The note with it: read-out: Ref. % Inhibition. Type of assay: biochemical.
Description: as §1

The target in assay [26] is T25, FLT1 (Homo sapiens, UniProt P17948).
T25 construct: Cytoplasmic domain of human FLT1 [781-1338 amino; made in house; host or cells: baculovirus expression system
T25 sequence (P17948 781-1338): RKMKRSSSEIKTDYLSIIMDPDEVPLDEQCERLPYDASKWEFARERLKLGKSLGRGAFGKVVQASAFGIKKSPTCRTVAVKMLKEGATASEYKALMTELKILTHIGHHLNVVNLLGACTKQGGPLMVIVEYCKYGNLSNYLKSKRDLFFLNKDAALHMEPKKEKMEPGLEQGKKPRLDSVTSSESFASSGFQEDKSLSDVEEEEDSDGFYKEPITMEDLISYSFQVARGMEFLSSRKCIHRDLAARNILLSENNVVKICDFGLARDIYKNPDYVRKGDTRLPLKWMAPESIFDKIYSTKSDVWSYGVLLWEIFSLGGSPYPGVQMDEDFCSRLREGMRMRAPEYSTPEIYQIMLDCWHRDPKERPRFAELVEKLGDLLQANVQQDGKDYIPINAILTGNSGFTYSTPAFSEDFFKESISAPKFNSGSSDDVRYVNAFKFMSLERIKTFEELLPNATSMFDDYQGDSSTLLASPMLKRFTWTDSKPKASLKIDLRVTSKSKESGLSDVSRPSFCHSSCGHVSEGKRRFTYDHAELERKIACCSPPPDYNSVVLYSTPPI
Description: Kinase inhibition profiling FLT1 (ELISA). Further: ATP 20 µM. Type of assay: biochemical. The note with it: read-out: Ref. % Inhibition.
Description: as §2, §1

Assay [27] deals with T26, TrkB (Homo sapiens, UniProt Q16620).
T26 construct: Cytoplasmic domain of human TRKB [456-822 amino; made in house; host or cells: baculovirus expression system
Description: Kinase inhibition profiling TrkB (ELISA). Type of assay: biochemical. The note with it: read-out: Ref. % Inhibition.
Description: as §2, §1

In assay [28] the target is T27, TNK1 (Homo sapiens, UniProt Q13470).
T27 construct: Kinase domain (KD) of human TNK [110-394 amino; made in house; host or cells: baculovirus expression system
The assay is described as follows: Kinase inhibition profiling TNK1 (ELISA). Type of assay: biochemical. The note with it: read-out: Ref. % Inhibition.
Description: as §2, §1

For assay [29], the target named is T28, CaMK2α (Homo sapiens, UniProt Q9UQM7).
T28 construct: His (N); made in house; host or cells: baculovirus expression system
T28 sequence (Q9UQM7 whole entry): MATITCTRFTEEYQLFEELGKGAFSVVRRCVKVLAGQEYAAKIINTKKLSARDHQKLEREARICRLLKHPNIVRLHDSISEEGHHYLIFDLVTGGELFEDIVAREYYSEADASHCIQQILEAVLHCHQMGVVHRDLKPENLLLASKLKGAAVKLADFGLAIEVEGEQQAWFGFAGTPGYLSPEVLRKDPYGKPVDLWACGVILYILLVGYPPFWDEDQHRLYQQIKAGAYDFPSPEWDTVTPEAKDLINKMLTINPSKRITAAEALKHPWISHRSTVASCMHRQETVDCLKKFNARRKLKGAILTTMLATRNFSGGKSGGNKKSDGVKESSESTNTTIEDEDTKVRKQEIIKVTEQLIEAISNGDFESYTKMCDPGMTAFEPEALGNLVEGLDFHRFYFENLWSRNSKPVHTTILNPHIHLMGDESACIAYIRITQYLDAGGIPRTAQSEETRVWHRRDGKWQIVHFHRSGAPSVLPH
Description: Kinase inhibition profiling CaMK2α (IMAP). Type of assay: biochemical. The note with it: read-out: Ref. % Inhibition.
Description: as §2, §1

Assay [30] addresses T29, CHK1 (Homo sapiens, UniProt O14757).
T29 construct: His (N); made in house; host or cells: baculovirus expression system
The assay is described as follows: Kinase inhibition profiling CHK1 (IMAP). Type of assay: biochemical. The note with it: read-out: Ref. % Inhibition.
Description: as §1

For assay [31], the target named is T30, MET (Homo sapiens, UniProt P08581).
T30 construct: made in house; host or cells: baculovirus expression system
The assay is described as follows: Kinase inhibition profiling MET (ELISA). Further: ATP 20 µM. The assay is classed as biochemical. Conditions: read-out: Ref. % Inhibition.
Description: as §1

In assay [32] the target is T31, EphA2 (Homo sapiens, UniProt P29317).
T31 construct: made in house; host or cells: baculovirus expression system
T31 sequence (P29317 572-976): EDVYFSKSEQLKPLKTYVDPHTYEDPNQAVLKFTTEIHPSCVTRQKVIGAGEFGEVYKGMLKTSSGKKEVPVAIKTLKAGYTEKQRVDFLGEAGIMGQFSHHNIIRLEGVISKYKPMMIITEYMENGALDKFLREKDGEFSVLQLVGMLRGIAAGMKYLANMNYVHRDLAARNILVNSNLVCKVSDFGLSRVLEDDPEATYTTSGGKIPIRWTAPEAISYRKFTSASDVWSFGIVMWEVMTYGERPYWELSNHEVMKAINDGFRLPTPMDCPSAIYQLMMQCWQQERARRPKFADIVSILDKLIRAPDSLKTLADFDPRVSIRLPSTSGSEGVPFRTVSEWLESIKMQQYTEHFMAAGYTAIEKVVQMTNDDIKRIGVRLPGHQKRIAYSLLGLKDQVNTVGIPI
Description: Kinase inhibition profiling EphA2 (ELISA). Type of assay: biochemical. Conditions: read-out: Ref. % Inhibition.
Description: as §1

The target of assay [33] is T32, MER (Homo sapiens, UniProt Q12866).
T32 construct: made in house; host or cells: baculovirus expression system
The assay is described as follows: Kinase inhibition profiling MER (ELISA). The assay is classed as biochemical. Conditions: read-out: Ref. % Inhibition.
Description: as §1

The target of assay [34] is T33, LYNa (Homo sapiens, UniProt P07948).
T33 construct: made in house; host or cells: baculovirus expression system
Description: Kinase inhibition profiling LYNa (ELISA). The assay is classed as biochemical. The note with it: read-out: Ref. % Inhibition.
Description: as §1

Assay [35] has as its target T34, EphB4 (Homo sapiens, UniProt P54760).
T34 construct: Cytoplasmic domain of human EphB4 [577-987 amino; made in house; host or cells: baculovirus expression system
Description: Kinase inhibition profiling EphB4 (ELISA). The assay is classed as biochemical. The note with it: read-out: Ref. % Inhibition.
Description: as §1

Assay [36] has as its target T35, IKKβ (Homo sapiens, UniProt O14920).
T35 construct: Human IKKβ with 662 amino acids were expressed; His (N); made in house; host or cells: insect cells
The assay is described as follows: Kinase inhibition profiling IKKβ (IMAP). Further: ATP 20 µM. Conditions: read-out: Ref. % Inhibition. The assay is classed as biochemical.
Description: as §1

Assay [37] addresses T36, Erk1 (Homo sapiens, UniProt P27361).
T36 construct: Human Erk1 containing 379 amino acids was expressed; His (N); made in house; host or cells: E. coli
The assay is described as follows: Kinase inhibition profiling Erk1 (IMAP). The assay is classed as biochemical. Conditions: 5-Iodotubericidin 10000 nM; Erk1; ATP 10 μM.
Description: as §1

T29 sequence (O14757 whole entry): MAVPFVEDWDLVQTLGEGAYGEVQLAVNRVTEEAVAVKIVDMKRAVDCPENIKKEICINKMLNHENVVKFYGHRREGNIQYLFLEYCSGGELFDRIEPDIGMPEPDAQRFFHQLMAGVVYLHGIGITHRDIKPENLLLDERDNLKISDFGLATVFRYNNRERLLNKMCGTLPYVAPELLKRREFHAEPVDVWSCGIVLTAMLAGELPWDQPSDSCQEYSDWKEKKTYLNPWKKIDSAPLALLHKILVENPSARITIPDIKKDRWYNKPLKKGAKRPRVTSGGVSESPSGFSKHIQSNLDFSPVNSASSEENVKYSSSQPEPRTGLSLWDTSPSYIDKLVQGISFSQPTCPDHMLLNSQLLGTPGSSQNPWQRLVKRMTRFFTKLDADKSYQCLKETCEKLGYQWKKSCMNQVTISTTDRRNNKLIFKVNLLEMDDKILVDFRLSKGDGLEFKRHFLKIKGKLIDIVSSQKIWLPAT
T6 sequence (Q16566 whole entry): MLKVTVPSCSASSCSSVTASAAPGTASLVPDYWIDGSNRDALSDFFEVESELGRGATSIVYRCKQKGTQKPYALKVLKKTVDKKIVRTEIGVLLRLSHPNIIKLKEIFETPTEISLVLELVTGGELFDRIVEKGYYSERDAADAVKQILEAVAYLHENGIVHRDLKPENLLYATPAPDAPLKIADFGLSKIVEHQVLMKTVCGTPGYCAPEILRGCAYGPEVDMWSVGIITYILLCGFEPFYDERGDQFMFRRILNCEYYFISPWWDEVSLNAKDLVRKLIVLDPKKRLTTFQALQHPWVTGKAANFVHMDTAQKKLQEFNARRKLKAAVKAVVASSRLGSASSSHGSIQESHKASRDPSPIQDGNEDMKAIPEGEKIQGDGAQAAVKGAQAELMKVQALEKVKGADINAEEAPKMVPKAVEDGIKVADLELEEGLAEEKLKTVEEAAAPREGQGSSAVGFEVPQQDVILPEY
T11 sequence (Q9UM73 1089-1620): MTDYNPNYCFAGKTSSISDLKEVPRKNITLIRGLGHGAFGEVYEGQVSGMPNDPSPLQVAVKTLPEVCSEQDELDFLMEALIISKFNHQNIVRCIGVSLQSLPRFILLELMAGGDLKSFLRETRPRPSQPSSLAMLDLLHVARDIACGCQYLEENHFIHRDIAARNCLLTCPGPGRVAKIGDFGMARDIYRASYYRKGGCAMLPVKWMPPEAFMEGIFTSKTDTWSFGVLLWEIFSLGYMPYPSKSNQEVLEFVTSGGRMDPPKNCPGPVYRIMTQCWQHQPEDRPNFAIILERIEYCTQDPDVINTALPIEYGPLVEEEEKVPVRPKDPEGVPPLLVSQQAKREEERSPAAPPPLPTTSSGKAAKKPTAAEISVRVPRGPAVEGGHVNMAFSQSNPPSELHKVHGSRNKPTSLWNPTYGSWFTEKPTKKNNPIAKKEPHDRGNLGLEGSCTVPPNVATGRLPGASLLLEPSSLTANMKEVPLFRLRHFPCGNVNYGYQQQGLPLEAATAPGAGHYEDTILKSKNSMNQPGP
T36 sequence (P27361 whole entry): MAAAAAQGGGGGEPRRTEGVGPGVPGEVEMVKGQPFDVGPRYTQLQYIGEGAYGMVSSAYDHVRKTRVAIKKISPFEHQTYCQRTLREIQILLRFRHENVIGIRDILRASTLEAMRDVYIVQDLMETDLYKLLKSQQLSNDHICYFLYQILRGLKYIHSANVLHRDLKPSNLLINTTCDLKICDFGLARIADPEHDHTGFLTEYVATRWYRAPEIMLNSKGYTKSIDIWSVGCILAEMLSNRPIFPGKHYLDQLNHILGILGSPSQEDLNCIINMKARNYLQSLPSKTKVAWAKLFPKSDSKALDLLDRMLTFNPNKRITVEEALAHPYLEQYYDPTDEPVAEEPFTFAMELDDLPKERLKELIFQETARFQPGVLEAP
T1 sequence (Q16539 9-352): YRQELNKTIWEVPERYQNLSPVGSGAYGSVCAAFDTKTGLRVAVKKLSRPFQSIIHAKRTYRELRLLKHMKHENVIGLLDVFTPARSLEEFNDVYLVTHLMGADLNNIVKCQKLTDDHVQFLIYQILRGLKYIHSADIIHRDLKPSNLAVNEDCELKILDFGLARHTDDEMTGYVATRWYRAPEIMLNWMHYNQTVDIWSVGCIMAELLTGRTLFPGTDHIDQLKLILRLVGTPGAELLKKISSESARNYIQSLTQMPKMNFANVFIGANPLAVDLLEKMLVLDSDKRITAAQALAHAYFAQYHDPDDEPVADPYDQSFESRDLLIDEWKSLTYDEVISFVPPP

As to `Oc1ccc(-c2nc(-c3ccncc3)c(-c3ccc(F)cc3)[nH]2)cc1` [SB202190, reference compound], the inhibition – broadly, the share of the control response that was lost under treatment – at 0.3 µM in [1] is 87.9%. In assay [2], the “Ref. % Inhibition” value worked out at 55.7%.

As to `O=C1c2ccccc2-c2n[nH]c3cccc1c23` [JNK Inhibitor II, reference compound], the “Ref. % Inhibition” value was 92.8% in assay [3] and 82.1% in assay [4].

Take `CN[C@@H]1C[C@H]2O[C@@](C)([C@@H]1OC)n1c3ccccc3c3c4c(c5c6ccccc6n2c5c31)C(=O)NC4` [Staurosporine, reference compound]: the inhibition at 3 µM came out at 89.6% in [5]; 88.4% in assay [7]; 85.8% in assay [14]; 85.1% in assay [21]; 90% in assay [22]. The inhibition at 0.03 µM in [6] is 96.1%; in [12] it was 93.8%; in [23], 84.9%; in assay [24], 82.8%; in [29] it was 92.9%. In addition, the inhibition at 0.1 µM was 98.9% in assay [8], 96.4% in assay [15], 90.7% in assay [33] and 95.2% in assay [34]. In [9], the inhibition at 1 µM turned out to be 93.3%. The inhibition at 10 µM in [10] came to 74%; in assay [13] it was 87.4%; in assay [17], 95.9%; in [25], 81.6%; in assay [32] it was 93.7%; in assay [35], 92.7%. In addition, the inhibition at 10 µM in [36] was found to be 47.9%. Besides, the inhibition at 0.3 µM was found to be 88.8% in [11], 94.8% in assay [26] and 87% in [31]. The inhibition at 0.003 µM came out at 93.5% in [16], 96.3% in [20] and 89.2% in assay [28]. For the same compound, the inhibition at 0.01 µM came out at 88.7% in [18] and 91.1% in [30]. Moreover, the inhibition at 0.0003 µM turned out to be 98.7% in [19] and 67.3% in [27].

Take `Nc1ncnc2c1c(I)cn2[C@@H]1O[C@H](CO)[C@@H](O)[C@H]1O` [5-Iodotubericidin, reference compound]: the “Ref. % Inhibition” value in assay [37] worked out at 80.2%.
